These results are taken from ChEMBL document CHEMBL3046689, “Volatile aldehydes are promising broad-spectrum postharvest insecticides” (J Agric Food Chem, 2000).

≈ marks a conversion by molar mass, not a printed value. Calls of active or inactive are those of the source. The rule behind the calls is not given here.

One data set relates to Bemisia. Put plainly: Insecticidal activity against Bemisia sp. In kind it is functional, organism-based.
Data set [1] deals with Lactuca sativa. Briefly: Phytotoxicity in naked Lactuca sativa (lettuce) assessed as change in visual quality after compound application through two-tier reduced pressure fumigation at 30 mmHg for 0.5 hr and then 760 mmHg for 1.5 hr at 23 +/- 1 degC after 2 hr. The settings on record: in vivo. In kind it is organism-based.
For a further data set, the system named is Pseudococcus affinis. Briefly: Insecticidal activity against Pseudococcus affinis. In kind it is functional, organism-based.
Data set [2] has as its system Lactuca sativa. Briefly: Phytotoxicity in naked Lactuca sativa (lettuce) assessed as residual aldehyde odor after compound application through two-tier reduced pressure fumigation at 30 mmHg for 0.5 hr and then 760 mmHg for 1.5 hr at 23 +/- 1 degC after 2 hr. In kind it is organism-based. The settings on record: in vivo.
Data set [3] has as its system Myzus persicae. Briefly: Insecticidal activity against Myzus persicae (green peach aphid) placed under third leaf of naked Iceburg lettuce heads and after compound application for 2 hr through two-tier reduced pressure fumigation at 30 mmHg for 0.5 hr and then 760 mmHg for 1.5 hr at 23 +/- 1 degC measured after 24 hr. Format: functional. To be noted: for LC50: Myzus persicae, read-out: LD50 (the source's name).

The test system of another data set is Pseudococcus viburni. Put plainly: Insecticidal activity against Pseudococcus viburni. Format: functional, organism-based.
The next data set relates to Tetranychus urticae. Put plainly: Insecticidal activity against Tetranychus urticae (two-spotted spider mite). In kind it is functional, organism-based.
The subject of a further data set is Brevicoryne brassicae. Put plainly: Insecticidal activity against Brevicoryne brassicae (cabbage aphids). In kind it is functional, organism-based.
Data set [4] has as its system Frankliniella occidentalis. Put plainly: Insecticidal activity against Frankliniella occidentalis (western flower thrips). In kind it is functional, organism-based.
Data set [5] has as its system Myzus persicae. Put plainly: Insecticidal activity against Myzus persicae (green peach aphid) applied through two-tier reduced pressure fumigation at 30 mmHg for 0.5 hr and then 760 mmHg for 1.5 hr at 23 +/- 1 degC. In kind it is functional.

As to `CCC(C)C=O` (stereo not given) [2-METHYLBUTANAL], the outcome (with Bemisia; in the data set on Pseudococcus affinis; in the data set on Pseudococcus viburni; in data set [4]) was Active. Also, the Activity entry in the data set on Lactuca sativa [1] and with Lactuca sativa [2] was “Toxic” each time. In the data set with Myzus persicae [3], this compound registered an LD90 of 184.4 mg/L. Moreover, in the data set on Myzus persicae [3], the LC50 was determined as 138 µg/mL (≈ 1610 µM). For the same compound, the outcome in the data set with Tetranychus urticae and in the data set with Brevicoryne brassicae was inactive.
Consider `CCCCC=O` [PENTANAL], for which the outcome (in the data set on Bemisia; in the data set on Pseudococcus affinis; in the data set with Pseudococcus viburni; in data set [4]) was Active. Moreover, the Activity entry in the data set with Lactuca sativa [1] and in the data set on Lactuca sativa [2] was “Toxic” each time. In the data set on Myzus persicae [3], the LD90 is reported as 115.7 mg/L. Moreover, the LC50 in the data set on Myzus persicae [3] turned out to be 71.4 µg/mL (≈ 829 µM). Further, the outcome in the data set with Tetranychus urticae and with Brevicoryne brassicae was inactive.
For `CCCC(C)C=O` (stereo not given) [2-METHYLPENTANAL], the outcome (with Bemisia; in the data set on Pseudococcus affinis; in the data set with Pseudococcus viburni; in data set [4]) was Active. The Activity result in the data set with Lactuca sativa [1] and with Lactuca sativa [2] was “Toxic” throughout. The same compound showed an LD90 with Myzus persicae [3] of 54.2 mg/L. Moreover, the LC50 with Myzus persicae [3] amounted to 39.9 µg/mL (≈ 398 µM). Besides, the result in the data set on Tetranychus urticae and in the data set with Brevicoryne brassicae was inactive.
Take `CCC/C=C/C=O`: the result (with Bemisia; with Pseudococcus affinis; with Pseudococcus viburni; in data set [4]) was Active. Also, the Activity result in the data set with Lactuca sativa [1] and in the data set with Lactuca sativa [2] was “Toxic” each time. In the data set on Myzus persicae [3], the LD90 is recorded as 54.4 mg/L. Further, the LC50 in the data set with Myzus persicae [3] is 24.3 µg/mL (≈ 248 µM). The outcome in the data set with Tetranychus urticae and in the data set with Brevicoryne brassicae was inactive.
For `CC(C)=CC=O` [3-METHYL-(E)-2-BUTENAL], the result (with Bemisia; in the data set with Pseudococcus affinis; in the data set on Pseudococcus viburni; in [4]) was Active. Moreover, the Activity result in the data set with Lactuca sativa [1] and in the data set on Lactuca sativa [2] was “Toxic” in each case. Besides, the LD90 in the data set with Myzus persicae [3] turned out to be 139.1 mg/L. In addition, the LC50 with Myzus persicae [3] came out at 73.9 µg/mL (≈ 879 µM). Also, the result with Tetranychus urticae and in the data set with Brevicoryne brassicae was inactive.
Take `CC/C=C(\C)C=O` [2-methyl-(E)-2-pentenal]: the result (with Bemisia; in the data set with Pseudococcus affinis; in the data set on Pseudococcus viburni; in [4]) was Active. The Activity result in the data set with Lactuca sativa [1] and in the data set with Lactuca sativa [2] was “Toxic” in each case. Moreover, the LD90 in the data set with Myzus persicae [3] is 85.8 mg/L. Besides, in the data set with Myzus persicae [3], the LC50 worked out at 33.5 µg/mL (≈ 341 µM). Besides, the outcome with Tetranychus urticae and in the data set with Brevicoryne brassicae was inactive.
With `CC(C)C=O` [ISOBUTYRALDEHYDE], the result (with Bemisia; in the data set with Pseudococcus affinis; with Pseudococcus viburni; in [4]) was Active. Besides, the Activity result with Lactuca sativa [1] and with Lactuca sativa [2] was “Toxic” in each case. The LD90 in the data set on Myzus persicae [3] turned out to be 224.1 mg/L. Further, the result in the data set on Tetranychus urticae and in the data set on Brevicoryne brassicae was inactive. Moreover, in the data set on Myzus persicae [5], the CTP was 9.2 mg/L.hr.
